Data on twelve compounds can be found in US7049317B2, “CCR-3 receptor antagonists” (Syntex (U.S.A.) LLC, priority 2001, dated 2006).

The target in data set [1] is T1, CCR-3 receptor (Homo sapiens, UniProt P51677).
T1 construct: expressed in transfected cells; host or cells: L1.2 cells (murine pre-B lymphoma line)
T1 sequence (P51677 1-355): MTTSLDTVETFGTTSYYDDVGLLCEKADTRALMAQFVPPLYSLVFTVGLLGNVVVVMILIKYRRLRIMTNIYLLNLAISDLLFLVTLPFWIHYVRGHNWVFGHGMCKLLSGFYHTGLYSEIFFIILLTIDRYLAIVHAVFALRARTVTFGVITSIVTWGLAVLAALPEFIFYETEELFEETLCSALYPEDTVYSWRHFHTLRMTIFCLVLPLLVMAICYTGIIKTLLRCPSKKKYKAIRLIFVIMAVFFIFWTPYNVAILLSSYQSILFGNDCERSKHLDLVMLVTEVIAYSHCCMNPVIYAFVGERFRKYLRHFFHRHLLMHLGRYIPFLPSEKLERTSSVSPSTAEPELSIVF
The data set is described as follows: CCR-3 Receptor Binding Assay, inhibition of 125I eotaxin binding to CCR-3 L1.2 transfectant cells. Conditions: 1 hour at room temperature. How it is done: The CCR-3 antagonistic activity of the compounds of the invention was determined by their ability to inhibit the binding of ^125I eotaxin to CCR-3 L1.2 transfectant cells (see Ponath, P. D. et al., J. Exp. Med., Vol. 183, 2437–2448, (1996)).
The assay was performed in Costar 96-well polypropylene round bottom plates. Test compounds were dissolved in DMSO and then diluted with binding buffer (50 mM HEPES, 1 mM CaCl2, 5 mM MgCl2, 0.5% bovine serum albumin (BSA), 0.02% sodium azide, pH 7.24) such that the final DMSO concentration was 2%. 25 μl of the test solution or only buffer with DMSO (control samples) was added to each well, followed by the addition of 25 μl of ^125I-eotaxin ([…]) (NEX314, New England Nuclear, Boston, Mass.) and 1.5×10^5 of the CCR-3 L1.2 transfected cells in 25 μl binding buffer. The final reaction volume was 75 μl.
After incubating the reaction mixture for 1 hour at room temperature, the reaction was terminated by filtering the reaction mixture through polyethylenimine treated Packard Unifilter GF/C filter plate (Packard, Chicago, Ill.). The filters were washed four times with ice cold wash buffer containing 10 mm HEPES and 0.5M sodium chloride (pH 7.2) and dried at 65° C. for approximately 10 minutes. 25 μl/well of Microscint-20® scintillation fluid (Packard) was added and the radioactivity retained on the filters was determined by using the Packard TopCount®

As for `COc1ccc(-c2cnc(SCC(=O)N[C@@H]3CCC[C@H]3N(C)CCc3ccc(Cl)cc3)nc2)cc1OC.Cl` (racemic), the melting point (usually the temperature, or range, at which the solid turns liquid) is 123.7 to 125.3 °C.
Same read-out and setting: in the case of `COc1cc(NC(=O)N[C@@H]2CCC[C@H]2NCCc2ccc(Cl)cc2)cc(OC)c1OC.Cl` (racemic) it was 97 to 101.5 °C.
The same measure, in the same setting: the same measure for `COc1ccc(-c2cnc(SCC(=O)N[C@@H]3CCC[C@H]3NCCc3ccc(Cl)cc3)nc2)cc1OC.Cl` (racemic): 181.3 to 185.6 °C.
Same read-out and setting: in the case of `COc1cc(NC(=O)N[C@@H]2CCC[C@H]2NCCCc2ccc(Cl)cc2)cc(OC)c1OC.Cl` (racemic) it was 91.3 to 96 °C.
`CS(=O)(=O)c1ccc(C(=O)N[C@@H]2CCC[C@H]2NCCc2ccc(Cl)cc2)cc1.Cl` (racemic): the melting point lay within 221.8 to 222.7 °C.
Still for that read-out and setting: the same measure for `COc1cc(NC(=O)N[C@@H]2CCC[C@H]2N(C)CCCc2ccc(Cl)cc2)cc(OC)c1OC.Cl` (racemic): 75 to 82 °C; for `CN(CCc1ccc(Cl)cc1)[C@@H]1CCC[C@H]1NC(=O)c1ccc(S(C)(=O)=O)cc1.Cl` (racemic): 179 to 179.3 °C.
Same read-out and setting: in the case of `CN(CCCc1ccc(Cl)cc1)[C@@H]1CCC[C@H]1NC(=O)c1ccc(S(C)(=O)=O)cc1.Cl` (racemic) it was 109 to 113 °C.
The compound `COc1ccc(-c2cnc(SCC(=O)N[C@@H]3CCC[C@H]3NCCCc3ccc(Cl)cc3)nc2)cc1OC.Cl` (racemic) [Compound 1, (±)-trans-N-{2-[3-(4-Chlorophenyl)propylamino]cyclopentyl}-2-[5-(3,4-dimethoxyphenyl)pyrimidin-2-ylsulfanyl]acetamide hydrochloride] returned a melting point of 95.3 to 111.3 °C. In addition, in data set [1], the IC50 – broadly, the concentration at which inhibition is half-maximal – came to 18.2 µM.
In turn, `CS(=O)(=O)c1ccc(C(=O)N[C@@H]2CCC[C@H]2NCCCc2ccc(Cl)cc2)cc1.Cl` (racemic) [Compound 2, (±)-trans-N-{2-[3-(4-Chlorophenyl)propylamino]cyclopentyl}-4-methanesulfonylbenzamide hydrochloride] registered a melting point of 192.3 to 196.8 °C. Also, the IC50 in data set [1] is 6.8 µM.
The like results for `COc1cc(NC(=O)N[C@@H]2CCC[C@H]2N(C)CCc2ccc(Cl)cc2)cc(OC)c1OC.Cl` (racemic) [Compound 6, (±)-trans-1-(2-{[2-(4-Chlorophenyl)ethyl]methylamino}cyclopentyl)-3-(3,4,5-trimethoxyphenyl)urea hydrochloride] were, in that order, 97 to 105 °C and 5.4 µM.
In the same order, the values of `COc1ccc(-c2cnc(SCC(=O)N[C@@H]3CCC[C@H]3N(C)CCCc3ccc(Cl)cc3)nc2)cc1OC.Cl` (racemic) [Compound 9, (±)-trans-N-(2-{[3-(4-Chlorophenyl)propyl]methylamino}-cyclopentyl)-2-[5-(3,4-dimethoxyphenyl)pyrimidin-2-ylsulfanyl]acetamide hydrochloride] are 91.5 to 98.5 °C and 5.6 µM.
